pIC50: −log10 of the molar value.

The subject of assay [1] is HuH7 cell line (FGF19 amplification). As to the kind of experiment: Cancer cell line cell viability assay (Cell Titer-Glo), 120 hr. Particulars: Homo sapiens, Huh-7. It is filed as cell-based. The source says: Experimental Purpose: To detect the change of intracellular ATP by Cell Titer-Glo® and to evaluate the inhibitory effect of the compounds on cancer cell lines by determining the in vitro IC50 value of the compounds.
Cell Titer-Glo® 2.0 Luminescent cell viability assay reagent was purchased from Promega (Madison, WI). KG-1, KATO-III, and MDA-MB-453 cell lines were purchased from American Type Culture Collection (Manassas, VA). RT112/84 cell line was purchased from Millipore-Sigma (St. Louis, MO). HuH7 cells were purchased from Seikisui Xenotech (Kansas City, KS). RT112/84 and MDA-MB-453 cells were cultured in RPMI1640 media supplemented with 10% fetal bovine serum. KG-1 and KATO-III cell lines were cultured in IMDM media supplemented with 20% FBS. HuH7 cells were cultured in IMDM media supplemented with 10% FBS. Cultures were maintained at 37° C. in a humidified atmosphere of 5% CO2 and 95% air.
Cell Viability Assay Procedure: Cells were plated in 96-well clear bottom/white plates (Corning #3903) at a range of densities depending on the optimal assay window (5,000-20,000 cells/well in […] of media), incubated overnight. The next day, test compound DMSO stock solutions were made at 10 mM and […] final concentration. Compounds were then added to cells in a 9-dose, 4-fold dilution series starting at 3 μM with an HP 300e Digital Dispenser (each dose was applied in triplicate). DMSO was backfilled to each well up to 301 nL total volume of test compound+DMSO, and a total of 301 nL DMSO was added to a control/no test compound well in triplicate. The cells in cell culture plates were incubated with the compounds at 37° C. and 5% CO2 for 72 hours-120 hours depending on the cell line. Then 50 μl of Cell Titer Glo 2.0 reagent was added to each well of the cell culture plates. The contents were covered from light and mixed on an orbital shaker at room temperature for minimum of 10 min. Luminescence was recorded by a Clariostar Plus Microplate Reader (BMG Labtech, Cary, NC). Cells were assessed as a percentage of DMSO only treated control cells. Curves were plotted and IC50 values were calculated using the GraphPad Prism 9 program based on a sigmoidal dose-response equation (log (inhibitor) vs. response—Variable slope, 4-parameter).

The target in another assay is T1, FGFR3 (V555M) (Homo sapiens, UniProt P22607, V555M).
T1 construct: made in house; host or cells: E. coli (BL21-derived), T7 phage
T1 sequence (P22607 23-806 V555M): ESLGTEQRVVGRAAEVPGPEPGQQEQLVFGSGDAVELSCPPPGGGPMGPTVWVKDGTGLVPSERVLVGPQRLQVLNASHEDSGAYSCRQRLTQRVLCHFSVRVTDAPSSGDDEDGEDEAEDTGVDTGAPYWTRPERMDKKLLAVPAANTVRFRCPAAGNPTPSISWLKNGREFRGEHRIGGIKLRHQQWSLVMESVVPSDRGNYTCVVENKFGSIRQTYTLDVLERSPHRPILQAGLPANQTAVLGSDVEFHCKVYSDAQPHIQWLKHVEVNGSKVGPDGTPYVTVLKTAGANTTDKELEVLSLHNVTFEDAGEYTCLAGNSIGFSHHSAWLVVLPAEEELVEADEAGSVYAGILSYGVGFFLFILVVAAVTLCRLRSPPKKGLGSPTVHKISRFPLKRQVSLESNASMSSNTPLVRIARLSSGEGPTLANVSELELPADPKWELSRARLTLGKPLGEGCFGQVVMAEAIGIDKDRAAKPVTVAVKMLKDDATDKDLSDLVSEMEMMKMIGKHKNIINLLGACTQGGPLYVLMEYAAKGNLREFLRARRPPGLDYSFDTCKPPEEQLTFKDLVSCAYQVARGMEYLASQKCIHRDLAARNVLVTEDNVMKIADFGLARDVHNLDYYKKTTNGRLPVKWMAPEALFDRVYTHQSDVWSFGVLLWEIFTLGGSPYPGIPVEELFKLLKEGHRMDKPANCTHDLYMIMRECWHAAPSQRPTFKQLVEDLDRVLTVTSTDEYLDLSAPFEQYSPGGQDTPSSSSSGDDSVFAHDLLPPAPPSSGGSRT
Briefly: Kinase binding assay (kinase-tagged T7 phage, affinity beads, qPCR), Kd. Particulars: V555M mutant; read-out: FGFR3 (V555M) (Kd nM). In short, it runs like this:
(§1)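 Kd obtained by Levenberg–Marquardt Hill-equation fit (slope −1) to qPCR-measured kinase retained on ligand-coated streptavidin beads.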
In general terms: Quantitative PCR measures a nucleic acid by following its amplification.

In another assay the target is T2, FGFR3 (Homo sapiens, UniProt P22607).
T2 construct: made in house; host or cells: E. coli (BL21-derived), T7 phage
T2 sequence (P22607 23-806): as the sequence (P22607 23-806 V555M) above, with M533V counted along it
The assay is described as above. Particulars: read-out: FGFR3 (Kd nM). In short, it runs like this:
as §1

Another assay addresses T3, FGFR1 (Homo sapiens, UniProt P11362).
T3 construct: made in house; host or cells: E. coli (BL21-derived), T7 phage
The assay is described as above. Particulars: read-out: FGFR1 (Kd nM). In short, it runs like this: as §1

For the next assay, the target named is T4, FGFR2 (Homo sapiens, UniProt P21802).
T4 construct: made in house; host or cells: E. coli (BL21-derived), T7 phage
T4 sequence (P21802 22-821): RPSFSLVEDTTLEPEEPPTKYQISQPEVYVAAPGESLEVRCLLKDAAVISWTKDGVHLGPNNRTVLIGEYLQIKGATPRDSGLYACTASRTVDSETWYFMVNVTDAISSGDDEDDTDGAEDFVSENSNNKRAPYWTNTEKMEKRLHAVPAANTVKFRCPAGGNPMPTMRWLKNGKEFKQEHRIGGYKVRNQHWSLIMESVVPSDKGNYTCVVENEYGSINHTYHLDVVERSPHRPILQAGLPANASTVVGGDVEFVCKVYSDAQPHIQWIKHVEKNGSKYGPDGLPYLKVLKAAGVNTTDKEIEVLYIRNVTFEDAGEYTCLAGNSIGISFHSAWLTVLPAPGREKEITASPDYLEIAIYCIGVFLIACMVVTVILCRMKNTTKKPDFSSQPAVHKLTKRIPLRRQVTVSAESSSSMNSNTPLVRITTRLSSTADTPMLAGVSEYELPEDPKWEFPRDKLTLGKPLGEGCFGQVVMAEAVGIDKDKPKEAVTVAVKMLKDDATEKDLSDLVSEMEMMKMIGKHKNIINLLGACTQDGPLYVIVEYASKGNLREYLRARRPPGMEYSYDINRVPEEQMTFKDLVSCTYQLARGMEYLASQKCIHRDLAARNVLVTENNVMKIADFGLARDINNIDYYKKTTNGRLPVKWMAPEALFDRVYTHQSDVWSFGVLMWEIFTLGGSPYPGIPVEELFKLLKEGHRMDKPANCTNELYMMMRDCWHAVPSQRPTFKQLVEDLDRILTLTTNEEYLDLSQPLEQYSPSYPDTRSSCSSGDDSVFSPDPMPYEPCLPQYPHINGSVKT
The assay is described as above. Particulars: read-out: FGFR2 (Kd nM). In short, it runs like this:
as §1

The next assay addresses T5, FGFR4 (Homo sapiens, UniProt P22455).
T5 construct: made in house; host or cells: E. coli (BL21-derived), T7 phage
The description is as above. Particulars: read-out: FGFR4 (Kd nM). In short, it runs like this:
as §1

T5 sequence (P22455 22-802): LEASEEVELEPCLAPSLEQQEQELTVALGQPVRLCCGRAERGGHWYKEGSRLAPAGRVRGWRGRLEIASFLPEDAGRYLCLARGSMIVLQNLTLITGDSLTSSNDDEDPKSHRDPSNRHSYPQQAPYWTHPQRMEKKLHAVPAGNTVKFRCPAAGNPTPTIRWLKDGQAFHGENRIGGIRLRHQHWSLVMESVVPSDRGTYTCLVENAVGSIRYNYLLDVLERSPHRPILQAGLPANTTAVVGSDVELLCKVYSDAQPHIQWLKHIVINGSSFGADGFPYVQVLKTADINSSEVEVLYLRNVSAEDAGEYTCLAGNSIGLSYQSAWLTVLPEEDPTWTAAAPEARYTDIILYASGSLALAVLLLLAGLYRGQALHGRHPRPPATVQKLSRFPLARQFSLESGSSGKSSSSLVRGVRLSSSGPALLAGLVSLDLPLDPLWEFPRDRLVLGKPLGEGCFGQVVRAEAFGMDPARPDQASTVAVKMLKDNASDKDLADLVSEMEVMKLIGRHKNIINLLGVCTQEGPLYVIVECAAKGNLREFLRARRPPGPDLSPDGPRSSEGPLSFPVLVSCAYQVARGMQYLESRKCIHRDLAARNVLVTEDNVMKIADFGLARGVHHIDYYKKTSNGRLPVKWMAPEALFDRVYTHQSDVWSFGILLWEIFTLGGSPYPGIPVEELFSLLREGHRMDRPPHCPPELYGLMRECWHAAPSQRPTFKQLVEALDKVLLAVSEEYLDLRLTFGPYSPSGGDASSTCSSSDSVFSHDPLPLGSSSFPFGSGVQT
T3 sequence (P11362 22-822): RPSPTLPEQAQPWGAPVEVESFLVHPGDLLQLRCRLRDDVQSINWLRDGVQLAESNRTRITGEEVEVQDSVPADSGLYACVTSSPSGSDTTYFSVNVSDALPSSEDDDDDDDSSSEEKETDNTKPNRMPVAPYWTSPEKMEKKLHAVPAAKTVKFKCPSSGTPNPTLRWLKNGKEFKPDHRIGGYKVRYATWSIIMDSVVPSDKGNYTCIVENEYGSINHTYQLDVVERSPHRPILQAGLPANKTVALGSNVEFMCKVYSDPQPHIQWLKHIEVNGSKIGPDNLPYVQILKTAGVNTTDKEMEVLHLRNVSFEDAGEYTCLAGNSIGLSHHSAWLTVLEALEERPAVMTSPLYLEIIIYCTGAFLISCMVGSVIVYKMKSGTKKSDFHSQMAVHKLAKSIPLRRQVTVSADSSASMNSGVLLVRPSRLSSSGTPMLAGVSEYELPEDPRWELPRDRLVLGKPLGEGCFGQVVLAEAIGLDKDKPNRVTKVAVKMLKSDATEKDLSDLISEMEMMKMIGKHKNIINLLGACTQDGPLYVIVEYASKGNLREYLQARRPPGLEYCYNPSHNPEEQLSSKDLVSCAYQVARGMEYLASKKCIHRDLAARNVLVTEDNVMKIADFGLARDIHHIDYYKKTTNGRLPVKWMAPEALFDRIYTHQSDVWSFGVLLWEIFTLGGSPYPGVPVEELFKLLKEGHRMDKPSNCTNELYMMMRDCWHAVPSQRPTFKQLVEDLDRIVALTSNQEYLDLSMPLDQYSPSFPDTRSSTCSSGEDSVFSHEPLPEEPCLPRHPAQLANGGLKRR

Turning to `C[C@@H](Oc1cc2c(-c3cnc(N4CC(C)(N5CCC5)C4)c(C#N)c3)n[nH]c2cc1F)c1c(Cl)cncc1Cl` [Example 136, (R)-5-(5-(1-(3,5-dichloropyridin-4-yl)ethoxy)-6-fluoro-1H-indazol-3-yl)-2-(3′-methyl-[1,3′-biazetidin]-1′-yl)nicotinonitrile], the pIC50 in assay [1] was 6.70 to 7.30. Besides, the Kd on FGFR3 (V555M), on FGFR3, on FGFR1, on FGFR2 and at FGFR4 was 1 to 50 nM throughout.
In assay [1], `Cc1ncc(Cl)c([C@@H](C)Oc2ccc3[nH]nc(-c4cnc(N5CC(C)(OC6CCC6)C5)c(C#N)c4)c3c2)c1Cl` [Example 46, (R)-2-(3-Cyclobutoxy-3-methylazetidin-1-yl)-5-(5-(1-(3,5-dichloro-2-methyl-pyridin-4-yl)ethoxy)-1H-indazol-3-yl)nicotinonitrile] had a pIC50 below 6.00. Besides, the Kd at FGFR3 (V555M) was 50 to 300 nM; on FGFR3, 300 to 1000 nM; on FGFR1, above 1000 nM; on FGFR2, above 1000 nM; at FGFR4, 1 to 50 nM.
`COc1cc2[nH]nc(-c3cnc(N4CC(C)(N5C[C@@H]6C[C@H]5CO6)C4)c(C#N)c3)c2cc1O[C@H](C)c1c(Cl)cncc1Cl` [Example 336, -(3-((1S,4S)-2-oxa-5-aza-bicyclo[2.2.1]hep-tan-5-y1)-3-methylazetidin-1-yl)-5-(5-((R)-1-(3,5-dichloropyridin-4-yl)ethoxy)-6-methoxy-1H-indazol-3-yl)nicotinonitrile] showed a pIC50 in assay [1] of 7.30 to 10.00. Also, the Kd at FGFR3 (V555M), at FGFR3, on FGFR1, at FGFR2 and on FGFR4 was 1 to 50 nM each time.
`CCNC1(C)CN(c2ncc(-c3n[nH]c4ccc(O[C@H](C)c5c(Cl)cncc5Cl)cc34)cc2C#N)C1` [Example 35, (R)-5-(5-(1-(3,5-dichloropyridin-4-yl)ethoxy)-1H-indazol-3-yl)-2-(3-(ethylamino)-3-methylazetidin-1-yl)nicotinonitrile] showed a pIC50 in assay [1] of 7.30 to 10.00. Also, the dissociation constant Kd at FGFR3 (V555M), on FGFR3, at FGFR1, at FGFR2 and at FGFR4 was 1 to 50 nM in each case.
As to `COc1cc2[nH]nc(-c3cnc(N4CC(C)(NCC5CC5)C4)c(C#N)c3)c2cc1O[C@@H](C)c1c(Cl)cncc1Cl` [Example 333, (S)-2-(3-((cyclopropyl-methyl)amino)-3-methylazetidin-1-yl)-5-(5-(1-(3,5-dichloropyridin-4-yl)ethoxy)-6-methoxy-1H-indazol-3-yl)nicotinonitrile], the pIC50 in assay [1] was 6.00 to 6.70. Moreover, the Kd at FGFR3 (V555M) is 50 to 300 nM; on FGFR3, 50 to 300 nM; on FGFR1 it was 300 to 1000 nM; on FGFR2, above 1000 nM; on FGFR4, 1 to 50 nM.
Compound `Cc1ncc(Cl)c([C@@H](C)Oc2ccc3[nH]nc(-c4cnc(N5CC(C)(NC6COC6)C5)c(C#N)c4)c3c2)c1Cl` [Example 30, 5-[5-[(1R)-1-(3,5-dichloro-2-methyl-4-pyridyl)ethoxy]-1H-indazol-3-yl]-2-[3-methyl-3-(oxetan-3-ylamino)azetidin-1-yl]pyridine-3-carbonitrile] gave a pIC50 in assay [1] of 7.30 to 10.00. Moreover, the Kd at FGFR3 (V555M), at FGFR3, at FGFR1, on FGFR2 and at FGFR4 was 1 to 50 nM in each case.
Consider `Cc1ncc(Cl)c([C@@H](C)Oc2ccc3[nH]nc(-c4cnc(N5CC(C)(N6CCOCC6)C5)c(C#N)c4)c3c2)c1Cl` [Example 38, 5-[5-[(1R)-1-(3,5-dichloro-2-methyl-4-pyridyl)ethoxy]-1H-indazol-3-yl]-2-(3-methyl-3-morpholino-azetidin-1-yl)pyridine-3-carbonitrile], for which the negative logarithm of the IC50 (pIC50) in assay [1] was 6.70 to 7.30. Moreover, the dissociation constant (Kd) at FGFR3 (V555M) lay within 1 to 50 nM; at FGFR3, 1 to 50 nM; at FGFR1, 300 to 1000 nM; on FGFR2 it was 50 to 300 nM; on FGFR4, 1 to 50 nM.
In assay [1], `COc1cc2[nH]nc(-c3cnc(N4CC(C)(N(C)C)C4)c(S(C)(=O)=O)c3)c2cc1O[C@H](C)c1c(Cl)cncc1Cl` [Example 1, (R)-1-(5-(5-(1-(3,5-dichloropyridin-4-yl)ethoxy)-6-methoxy-1H-indazol-3-y1)-3-(methylsulfonyl)pyridin-2-yl)-N,N,3-trimethylazetidin-3-amine] had a pIC50 of 7.30 to 10.00. The Kd at FGFR3 (V555M), at FGFR3, at FGFR1, on FGFR2 and at FGFR4 was 1 to 50 nM each time.
`CCN(CC)C1(C)CN(c2ncc(-c3n[nH]c4ccc(O[C@H](C)c5c(Cl)cncc5Cl)cc34)cc2C#N)C1` [Example 31, 5-[5-[(1R)-1-(3,5-dichloro-4-pyridyl)ethoxy]-1H-indazol-3-yl]-2-[3-(diethylamino)-3-methyl-azetidin-1-yl]pyridine-3-carbonitrile] had a pIC50 in assay [1] of 6.70 to 7.30. Moreover, the Kd at FGFR3 (V555M) was in the range of 1 to 50 nM; on FGFR3, 1 to 50 nM; at FGFR1, 1 to 50 nM; at FGFR2 it was 50 to 300 nM; at FGFR4, 1 to 50 nM.
For the compound `C[C@@H](Oc1ccc2[nH]nc(-c3cnc(N4CC(C)(CNS(C)(=O)=O)C4)c(C#N)c3)c2c1)c1c(Cl)cncc1Cl` [Example 18, (R)-N-((1-(3-cyano-5-(5-(1-(3,5-dichloropyridin-4-yl)ethoxy)-1H-indazol-3-yl)pyridin-2-yl)-3-methylazetidin-3-yl)methyl)methane-sulfonamide], the pIC50 in assay [1] was 7.30 to 10.00. Also, the Kd on FGFR3 (V555M) is 1 to 50 nM; on FGFR3, 1 to 50 nM; on FGFR1 it was 50 to 300 nM; at FGFR2, 50 to 300 nM; at FGFR4, 1 to 50 nM.
For `C[C@@H](Oc1cc2c(-c3cnc(N4CC(C)(CP(C)(C)=O)C4)c(C#N)c3)n[nH]c2cc1F)c1c(Cl)cncc1Cl` [Example 11, (R)-5-(5-(1-(3,5-dichloropyridin-4-yl)ethoxy)-6-fluoro-1H-indazol-3-yl)-2-(3-((dimethylphosphoryl)methyl)-3-methylazetidin-1-yl)nicotinonitrile], the pIC50 in assay [1] was 7.30 to 10.00. For the same compound, the Kd fell in the range of 1 to 50 nM on FGFR3 (V555M); 1 to 50 nM at FGFR3; 50 to 300 nM on FGFR1; 1 to 50 nM on FGFR2; 1 to 50 nM at FGFR4.
Regarding `CNC1(C)CN(c2ncc(-c3n[nH]c4ccc(O[C@H](C)c5c(Cl)cnc(C)c5Cl)cc34)cc2C#N)C1` [Example 32, 5-[5-[(1R)-1-(3,5-dichloro-2-methyl-4-pyridyl)ethoxy]-1H-indazol-3-yl]-2-[3-methyl-3-(methylamino)azetidin-1-yl]pyridine-3-carbonitrile], the pIC50 in assay [1] is 6.70 to 7.30. The Kd lay within 1 to 50 nM on FGFR3 (V555M); 1 to 50 nM on FGFR3; 1 to 50 nM at FGFR1; 50 to 300 nM at FGFR2; 1 to 50 nM on FGFR4.
In the case of `COc1cc2[nH]nc(-c3cnc(N4CC(C)(NCC(C)(C)O)C4)c(C#N)c3)c2cc1O[C@@H](C)c1c(Cl)cncc1Cl` [Example 331, (S)-5-(5-(1-(3,5-dichloropyridin-4-yl)ethoxy)-6-methoxy-1H-indazol-3-yl)-2-(3-((2-hydroxy-2-methylpro-pyl)amino)-3-methylazetidin-1-yl)nicotinonitrile], the pIC50 in assay [1] is 6.00 to 6.70. Also, the Kd on FGFR3 (V555M) fell in the range of 50 to 300 nM; on FGFR3, 50 to 300 nM; on FGFR1, 300 to 1000 nM; on FGFR2, 300 to 1000 nM; at FGFR4, 1 to 50 nM.

Usually pIC50 stands for the negative decadic logarithm of the IC50, by convention in mol/L. Read a high pIC50 as a small IC50. A word on the Kd: it is the free concentration of one partner at which half of the binding sites on the other are occupied at equilibrium, for simple one-to-one binding.

Source of the values: US20250368666A1, “INDAZOLE COMPOUNDS” (TYRA BIOSCIENCES, INC., priority 2022, published 2025).
